This is an account of results in patent US9840478B2 (MERCK SHARP & DOHME CORP., priority 2013, dated 2017).

This assay has as its system HIV-1 (H9IIIB strain). The assay can be described thus: Cell-based HIV infection assay using a reporter (Cell-Based), MT4-GFP cells. As to conditions: Human immunodeficiency virus 1, MT4-GFP cells infected with HIV-1 H9IIIB; 50% normal human serum; mean of at least two independent experiments; read-out: Cell-based IP. The procedure, abridged: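 MT4-GFP cells (HIV LTR-driven GFP) infected 24 h with HIV-1 H9IIIB at low MOI, then washed and plated with compounds in RPMI + 50% normal human serum, 0.4% DMSO final. Green cells counted at 24 and 48 h; R0 = 48 h/24 h ratio, inhibition normalized to DMSO and triple-drug control; IC50 from 4-parameter fit.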
For `O=C(C[C@@H](c1ccc(F)cc1)c1cc(F)cc(F)c1)Nc1cncc(F)c1CC[C@H]1CNCCN1C(=O)c1cccc(OC(F)(F)F)c1` [Example 346, (3S)-3-(3,5-difluorophenyl)-3-(4-fluorophenyl)-N-(5-fluoro-4-{2-[(2S)-1-{[3-(trifluoromethoxy)phenyl]carbonyl}piperazin-2-yl]ethyl}pyridin-3-yl)propanamide], the IC50 came to 860 nM.
Then `CC(Oc1ccccc1)C(=O)N1CCNC[C@@H]1CCc1c(F)cncc1NC(=O)C[C@@H](c1ccc(F)cc1)c1cc(F)cc(F)c1` (stereo partly drawn) [Example 347, (3S)-3-(3,5-difluorophenyl)-N-(5-fluoro-4-{2-[(2S)-1-(2-phenoxypropanoyl)piper-azin-2-yl]ethyl}pyridin-3-yl)-3-(4-fluorophenyl)propanamide], with 57 nM; and `O=C(C[C@@H](c1ccc(F)cc1)c1cc(F)cc(F)c1)Nc1cncc(F)c1CC[C@H]1CNCCN1C(=O)CCOc1ccccc1` [Example 348, (3S)-3-(3,5-difluorophenyl)-N-(5-fluoro-4-{2-[(2S)-1-(3-phenoxypropanoyl)piper-azin-2-yl]ethyl}pyridin-3-yl)-3-(4-fluorophenyl)propanamide], with 190 nM; and `CC(C)(C)c1ccc(OCC(=O)N2CCNC[C@@H]2CCc2c(F)cncc2NC(=O)C[C@@H](c2ccc(F)cc2)c2cc(F)cc(F)c2)cc1` [Example 349, (3S)-N-[4-(2-{(2S)-1-[(4-tert-butylphenoxy)acetyl]pipe-razin-2-yl}ethyl)-5-fluoropyridin-3-yl]-3-(3,5-difluorophenyl)-3-(4-fluorophenyl)propanamide], with 1500 nM.
To `COC(=O)N[C@H](C(=O)N[C@H]1CCC[C@@H]1CC[C@H]1CNCCN1S(=O)(=O)c1ccccc1)C(c1ccc(F)cc1)c1ccc(F)cc1` [Example 350, Methyl ((S)-1,1-bis(4-fluorophenyl)-3-oxo-3-(((1S,2R)-2-(2-((S)-1-(phenylsulfonyl)piperazin-2-yl)ethyl)cyclopentyl)amino)propan-2-yl)carbamate] belongs 12 nM; to `COC(=O)N[C@H](C(=O)N[C@@H]1CCC[C@H]1CC[C@H]1CNCCN1S(=O)(=O)c1ccccc1)C(c1ccc(F)cc1)c1ccc(F)cc1` [Example 351, Methyl ((S)-1,1-bis(4-fluorophenyl)-3-oxo-3-(((1R,2S)-2-(2-((S)-1-(phenylsulfonyl)piperazin-2-yl)ethyl)cyclopentyl)amino)propan-2-yl)carbamate], 360 nM.
To `COC(=O)N[C@H](C(=O)NC1CCCC1CC[C@H]1CNCCN1S(C)(=O)=O)C(c1ccc(F)cc1)c1ccc(F)cc1` (stereo partly drawn) [Example 352, 4-fluoro-beta-(4-fluorophenyl)-Nalpha-(methoxycarbonyl)-N-(2-{2-[(2S)-1-(methylsulfonyl)piperazin-2-yl]ethyl}cyclopentyl)-L-phenylalaninamide] belongs 190 nM; to `N[C@H](C(=O)N[C@@H]1CCCC[C@H]1CC[C@H]1CNCCN1S(=O)(=O)c1ccccc1)C(c1ccc(F)cc1)c1ccc(F)cc1` [Example 353, 4-fluoro-beta-(4-fluorophenyl)-N-[(1R,2S)-2-{2-[(2S)-1-(phenylsulfonyl)piperazin-2-yl]ethyl}cyclohexyl]-L-phenylalaninamide], 540 nM.
Turning to `COC(=O)N[C@H](C(=O)N[C@H]1CCCC[C@@H]1CC[C@H]1CNCCN1S(=O)(=O)c1ccccc1)C(c1ccc(F)cc1)c1ccc(F)cc1` [Example 354, methyl ((S)-1,1-bis(4-fluorophenyl)-3-oxo-3-(((1S,2R)-2-(2-((S)-1-(phenylsulfonyl)piperazin-2-yl)ethyl)cyclohexyl)amino)propan-2-yl)carbamate], the IC50 amounted to 22 nM.
Then `COC(=O)N[C@H](C(=O)N[C@H]1CCCC[C@@H]1CC[C@H]1CNCCN1S(=O)(=O)c1ccccc1)[C@@H](c1ccc(Cl)cc1)C1CCOCC1` [Example 355, methyl ((1R,2S)-1-(4-chlorophenyl)-3-oxo-3-(((1S,2R)-2-(2-((S)-1-(phenylsulfonyl)piperazin-2-yl)ethyl)cyclohexyl)amino)-1-(tetrahydro-2H-pyran-4-yl)propan-2-yl)carbamate], with 14 nM.
